This note sets out measurements from patent US11105747B2, “Spectroscopic methods to detect and characterize microorganisms” (Spectral Platforms, Inc., priority 2017, dated 2021).

The assay relates to unknown pathogen. Briefly: Antimicrobial susceptibility (MIC/MBC) from Raman slope and time to cloudiness versus antimicrobial concentration. It counts as cell-based. As for the experimental part:
To measure the minimum inhibitory concentration, or to otherwise characterize the antimicrobial susceptibility of any unknown pathogen to a candidate antimicrobial: • (a) Incubate the unknown pathogen for about 3 hours in a rich media. This time period should suffice to increase the concentration of the causative pathogen by about >100×. […] Incubate this mixture for another 20 minutes, which allows for sufficient time for the 10 CFUs to interact with the candidate antimicrobial. • (d) Add the 7 mixtures to the test vials, and test. The number of free radicals present in the mixed sample is a function of the concentration of the antimicrobial, and so the final slope can be plotted against antimicrobial concentration to develop estimates for the MIC. This is illustrated in FIGS. 32A and 32B.
FIG. 32A depicts the measured slope as a function of antimicrobial agent (vancomycin) concentration. FIG. 32B depicts the time taken for the tested samples to become cloudy. Above 2 μg/m L, the samples remain clear for very long incubation periods (>96 hours). Thus, the Minimum Bactericidal Concentration MBC is about 2 μg/mL. Above 0.25 mg/mL, the time to cloudiness increases slightly. […] As illustrated in FIGS. 32A and 32B, the MIC corresponds to the concentration at which the signal decreases slightly. Further, the MBC (Minimum Bactericidal Concentration) corresponds to the concentration at which the signal increases again.

Values after ≈ are worked out from the molar mass of the structure shown.

As for `CN[C@H](CC(C)C)C(=O)N[C@H]1C(=O)N[C@@H](CC(N)=O)C(=O)N[C@H]2C(=O)N[C@H]3C(=O)N[C@H](C(=O)N[C@H](C(=O)O)c4cc(O)cc(O)c4-c4cc3ccc4O)[C@H](O)c3ccc(c(Cl)c3)Oc3cc2cc(c3O[C@@H]2O[C@H](CO)[C@@H](O)[C@H](O)[C@H]2O[C@H]2C[C@](C)(N)[C@H](O)[C@H](C)O2)Oc2ccc(cc2Cl)[C@H]1O` [vancomycin], the “time taken for the tested samples to become cloudy (samples remain clear)” value (above 2 μg/mL vancomycin) was > 96 h. Besides, the MBC (concentration above which samples remain clear, signal increases again, read-out: Minimum Bactericidal Concentration MBC) is ~2 µg/mL (≈ 1.38 µM). Further, the MIC (read-out: MIC (minimum inhibitory concentration)) was ~250 µg/mL (≈ 173 µM).
